Key:
TNF = experiment: PBMC assay: TNF cytokine level after LPS stimulation; assay type: cell-based; details: human PBMCs, 100 ng/ml LPS for 6 hrs, MSD, read-out: TNFα EC50
Protocol: (§1) Peripheral venous blood was collected from healthy individuals and human peripheral blood mononuclear cells (PBMCs) were isolated from blood by Ficoll-Histopaque (Sigma-Aldrich, A0561) density gradient centrifugation. After isolation, PBMCs were stored in liquid nitrogen for later use. Upon thawing, PBMC cell viability was determined in growth medium (RPMI media supplemented with 10% fetal bovine serum, 1% Pen-Strep and 1% L-glutamine). […] PBMCs were added at a density of 7.5×10^4 cells per well and incubated for 30 min in a 5% CO2 incubator at 37° C. LPS stimulation was performed by addition of 100 ng/ml LPS (final concentration, Invivogen, tlrl-smlps) for 6 hrs followed by collection of cellular supernatant and the analysis of IL-1β (μM) and TNF cytokines levels (μM) via MSD technology according to manufacturers' guidelines (MSD, K151A0H).

[1] = test system: NLRP3 inflammasome pathway (IL-1β); experiment: PBMC assay: IL-1β release after LPS stimulation; assay type: cell-based; details: human PBMCs, 100 ng/ml LPS for 6 hrs, MSD
Protocol: The activity of a compound according to the present invention can be assessed by in vitro methods.
as §1

Structure (SMILES)	EC50 (TNF) [µM]	IC50 [1] [µM]	melting point [°C]
CCn1nc(CC(=O)N[C@H]2C[C@@](C)(O)C2)c(=O)c2ccc(Br)cc21 [F-5]	> 20	0.25	203.3
CCn1nc(CC(=O)Nc2ccc3nncn3c2)c(=O)c2ccc(Br)cc21 [F-6]	> 20	0.102	294.3
CC(C)n1nc(CC(=O)N[C@H]2C[C@@H](C(C)(C)O)C2)c(=O)c2ccc(C(F)(F)F)cc21 [F-10]	> 20	11.6	181
CC(C)n1nc(CC(=O)N[C@H]2C[C@@](C)(O)C2)c(=O)c2ccc(C(F)(F)F)cc21 [F-21]	> 20	0.836	200.9
CCn1nc(CC(=O)N[C@H]2C[C@@](C)(O)C2)c(=O)c2ccc(Cl)cc21 [F-25]	> 20	2.14	191.5
CC(C)c1ccc2c(=O)c(CC(=O)N[C@H]3C[C@@](C)(O)C3)nn(C(C)C)c2c1 [F-26]	> 20	1.08	201.5
CCn1nc(CC(=O)Nc2ccc3nncn3c2)c(=O)c2ccc(Cl)cc21 [F-27]	> 20	0.62	254.3
CC(C)n1nc(CC(=O)N[C@H]2C[C@@](C)(O)C2)c(=O)c2ccc(Cl)cc21 [F-28]	> 20	0.23	194.9
CC(C)n1nc(CC(=O)Nc2ccc3nncn3c2)c(=O)c2ccc(Cl)cc21 [F-29]	> 20	0.62	292
CC(C)n1nc(CC(=O)Nc2ccc3nncn3n2)c(=O)c2ccc(Cl)cc21 [F-30]	16.4	0.224	241.6
CC(C)c1ccc2c(=O)c(CC(=O)Nc3ccc4nncn4c3)nn(C(C)C)c2c1 [F-31]	11.4	0.22	181.4
CC(C)c1ccc2c(=O)c(CC(=O)Nc3ccc4nncn4n3)nn(C(C)C)c2c1 [F-32]	6.98	0.109	121.3
CC(C)n1nc(CC(=O)Nc2ccc(=O)n(C)n2)c(=O)c2ccc(Br)cc21 [F-33]	> 20	0.433	221.9
CCn1nc(CC(=O)Nc2ccc3nncn3n2)c(=O)c2ccc(Cl)cc21 [F-34]	> 20	0.49	206.5
CC(C)n1nc(CC(=O)Nc2ccc3nncn3c2)c(=O)c2ccc(C3CCC3)cc21 [F-42]	17.8	7.76	179.8
CC(C)n1nc(CC(=O)NC2CCc3ncn(C)c3C2)c(=O)c2ccc(C(F)(F)F)cc21 (centres unmarked) [F-43]	> 20	5.1	221
CCn1nc(CC(=O)Nc2ccc3nncn3c2)c(=O)c2ccc(C3CCC3)cc21 [F-46]	> 20	4.52	113.1
CC(C)n1nc(CC(=O)Nc2cc(Cl)c(=O)n(C(F)F)c2)c(=O)c2ccc(C(F)(F)F)cc21 [F-47]	> 20	3.65	233
CCn1nc(CC(=O)Nc2ncc3ncn(C)c3n2)c(=O)c2ccc(C(F)(F)F)cc21 [F-48]	> 20	3.26	271
CC(C)n1nc(CC(=O)Nc2ncc3ncn(C)c3n2)c(=O)c2ccc(C(F)(F)F)cc21 [F-50]	> 20	2.95	281.4
Cc1ncc2n1CCC(NC(=O)Cc1nn(C(C)C)c3cc(C(F)(F)F)ccc3c1=O)C2 (centres unmarked) [F-51]	> 20	2.48	233.4
CC(C)n1nc(CC(=O)Nc2ccc3nncn3n2)c(=O)c2ccc(Br)cc21 [F-134]	> 20	0.048	–
O=C(Cc1nn(C2CC2)c2cc(C3CC3)ccc2c1=O)Nc1ccc2nncn2n1 [F-137]	4.46	0.28	–
CC(C)n1nc(CC(=O)Nc2ccc3nccn3n2)c(=O)c2ccc(C(C)(F)F)cc21 [F-138]	3.43	0.24	–
CC(C)c1ccc2c(=O)c(CC(=O)Nc3ccc4nncn4n3)nn(C3CC3)c2c1 [F-140]	4.88	0.143	–
CCn1nc(CC(=O)Nc2ccc3nncn3n2)c(=O)c2ccc(C(C)C)cc21 [F-142]	~12.8	0.119	–
O=C(Cc1nn(C2CC2)c2cc(Br)ccc2c1=O)Nc1ccc2nncn2n1 [F-144]	> 20	0.078	–
CC(C)n1nc(NC(=O)Nc2ccc3nncn3c2)c(=O)c2ccc(C(F)(F)F)cc21 [F-150, 1-([1,2,4]triazolo[4,3-a]pyridin-6-yl)-3-(1-isopropyl-4-oxo-7-(trifluoromethyl)-1,4-dihydrocinnolin-3-yl)urea]	17.1	2.45	–

Second part, the molecule after the results:

EC50 (TNF) [µM]	IC50 [1] [µM]	melting point [°C]	Structure (SMILES)
11	0.239	152.7	CC(C)n1nc(CC(=O)Nc2ccc3cncn3c2)c(=O)c2ccc(C(F)(F)F)cc21 [F-15]
> 20	5.35	212.3	CC(C)n1nc(CC(=O)Nc2ccn3cnnc3c2)c(=O)c2ccc(C(F)(F)F)cc21 [F-17]
> 20	0.88	258.8	CC(C)n1nc(CC(=O)Nc2ccc(=O)n(C)n2)c(=O)c2ccc(C(F)(F)F)cc21 [F-18]
8.29	0.092	241.6	CC(C)n1nc(CC(=O)Nc2ccc3c(c2)[nH]c(=O)n3C)c(=O)c2ccc(C(F)(F)F)cc21 [F-19]
> 20	0.178	291.3	CC(C)n1nc(CC(=O)Nc2ccc3nncn3c2)c(=O)c2ccc(C(F)(F)F)cc21 [F-20]
12.2	0.464	178.3	CC(C)n1nc(CC(=O)Nc2ccncn2)c(=O)c2ccc(C(F)(F)F)cc21 [F-22]
> 20	0.814	206.8	CC(C)n1nc(CC(=O)Nc2ccc3ncnn3c2)c(=O)c2ccc(C(F)(F)F)cc21 [F-24]
> 20	0.99	259.8	CC(C)n1nc(CC(=O)Nc2ccc3c(C#N)ncn3c2)c(=O)c2ccc(C(F)(F)F)cc21 [F-36]
17.4	2.11	226.8	CC(C)n1nc(CC(=O)Nc2ccc3nnc(C(F)F)n3c2)c(=O)c2ccc(C(F)(F)F)cc21 [F-39]
> 20	6.35	216.3	Cc1nnc2cc(NC(=O)Cc3nn(C(C)C)c4cc(C(F)(F)F)ccc4c3=O)ccn12 [F-41]
> 20	3.19	156.4	CCC(C)n1nc(CC(=O)Nc2ccc3nncn3c2)c(=O)c2ccc(C(F)(F)F)cc21 (centres unmarked) [F-49]
> 20	0.59	–	Cc1nnc2ccc(NC(=O)Cc3nn(C(C)C)c4cc(C(F)(F)F)ccc4c3=O)nn12 [F-135]
7.58	0.109	–	CC(C)n1nc(CC(=O)Nc2ccc3nncn3n2)c(=O)c2ccc(C(F)(F)F)cc21 [F-143]
> 20	0.19	–	CC(C)n1nc(CC(=O)Nc2ccc3nncn3c2)c(=O)c2ccc(C(C)(F)F)cc21 [F-149, N-([1,2,4]triazolo[4,3-a]pyridin-6-yl)-2-(7-(1,1-difluoroethyl)-1-isopropyl-4-oxo-1,4-dihydrocinnolin-3-yl)acetamide]
